Test results published in patent US6803367B2, “Substance for inducing apoptosis” (Takara Shuzo Co., Ltd., priority 1997, dated 2004).

What was measured:
Type in all cases: cell-based, human
HL-60 cells [1] = assay: Growth inhibition of HL-60 cells (MTT, 96-well microtiter plate); conditions: for activity of growth inhibition of cancer cells: 5 μl per well, 18 hours incubation
Experimental: (§1) To each of the wells of a 96-well microtiter plate was added 1000, 500, 250, 125, 62.5 or 31.3 μg/ml aqueous solution of imidazolylcyclopentenone obtained in Example 1-(2) or 10 μl of water as a control. HL-60 (ATCC CCL-240) was suspended in an RPMI 1640 medium containing 10% of fetal calf serum to make the concentration 5×10^4 cells/ml and each 90 μl thereof was placed in each well of the above-mentioned microtiter plate and incubated at 37° C. for 48 hours in the presence of 5% carbon dioxide. Incubation was conducted for four hours more after addition of 10 μl of a solution (5 mg/ml) of 3-(4,5-dimethylthiazol-2-yl)-2,5-diphenyltetrzolium bromide (MTT; manufactured by Sigma) in a phosphate-buffered saline solution and the state of growth of the cells was observed under a microscope. Further, 100 μl of 2-propanol containing 0.04N hydrochloric acid was added followed by stirring and an absorbance at 590 nm was measured.
The non-adsorbed fraction of Example 4 was adjusted to pH 3 with HCl and heated at 121° C. for 1 hour. The resulting heat-treated solution was diluted with aseptic water to an extent of 2-, 4-, 8-, 16-, 32- or 64-fold and its activity of growth inhibition of HL-60 cells was measured by the same way as in Example 3.
Main peaks and the fractions between them were collected and evaporated to dryness in vacuo, each of the fractions was diluted to an extent of 3- or 9-fold with water and their activity of growth inhibition of HL-60 cells was measured by the same way as in Example 3 except that 5 μl of the sample were added to each well and the incubation was conducted for 18 hours. […] Production of apoptotic body was confirmed as well.
The growth inhibiting activity of a 1 mM aqueous solution of MC2 and a 350 μM aqueous solution of HMC2 obtained in Example 10 to HL-60 cells was measured by the same way as in Example 3.

HL-60 cells [2] = assay: Observation of apoptotic body in HL-60 cells under a microscope
Experimental: as §1
As a result of observation under a microscope, production of apoptotic body was confirmed.
Main peaks and the fractions between them were collected and evaporated to dryness in vacuo, each of the fractions was diluted to an extent of 3- or 9-fold with water and their activity of growth inhibition of HL-60 cells was measured by the same way as in Example 3 except that 5 μl of the sample were added to each well and the incubation was conducted for 18 hours. […]

HL-60 cells [3] = assay: DNA fragmentation in HL-60 cells by agarose gel electrophoresis; conditions: after incubation for 15 hours; concentration of the aqueous solution added (0.5 ml to 4.5 ml suspension)
Experimental: (§2) HL-60 cells (ATCC CCL240) which were incubated at 37° C. in an RPMI 1640 medium (manufactured by Nissui) containing 10% of fetal calf serum (manufactured by Gibco) treated at 56° C. for 30 minutes were suspended in the above medium to make the concentration 2.5×10^5 cells/4.5 ml. To this suspension was added 0.5 ml of 10 μM, 20 μM, 40 μM or 80 μM aqueous solution of S-1127 followed by incubating at 37° C. in the presence of 5% carbon dioxide gas for 15 hours or 39 hours.
(§3) Incidentally, such a phenomenon was not observed in the water-added control section.

HL-60 cells [4] = assay: Viable and dead cell counting of HL-60 cells by Trypan Blue staining
Experimental: as §2, §3
In FIG. 31, ◯ indicates the case where 10 μM of S-1127 was added; Δ indicates the case where 20 μM of S-1127 was added; □ indicates the case where 40 μM of S-1127 was added; X indicates the case where 80 μM of S-1127 was added and ● indicates the control where water was added.

## COC1=CC(OC)CC1=O (stereo not shown) [MC2, 2,4-dimethoxy-2-cyclopenten-1-one]
HL-60 cells [1]; 1 mM solution added, final concentration 100 μM, HL-60
  growth of the cells: inhibited
HL-60 cells [2]; final concentration 100 μM
  apoptotic body under an optical microscope: observed

## CC(=O)Nc1ccc(O)c(O)c1O [N-(2,3,4-trihydroxyphenyl)acetamide]
HL-60 cells [1]; 3-fold diluted solution of the HPLC fraction, HL-60
  activity of growth inhibition of cancer cells: activity of growth inhibition of cancer cells was noted
HL-60 cells [1]; undiluted aqueous solution of the HPLC fraction, HL-60
  activity of growth inhibition of cancer cells: activity of growth inhibition of cancer cells was noted
HL-60 cells [2]; Example 6, 18 hours incubation
  production of apoptotic body: confirmed

## CC(=O)N[C@H]1C(O)O[C@H](CO)[C@H](O)[C@@H]1O (stereo partly shown) [N-acetylgalactosamine, reference compound]
HL-60 cells [1]; 4 mg/ml added, HL-60
  growth of the cells versus water-added control section: no difference

## O=CC(=CCc1ccc(O)cc1)c1ccc(O)cc1 [S-1127, 2,4-bis(p-hydroxyphenyl)-2-butenal]
HL-60 cells [3]
  concentration at which fragmentation of DNA was noted: ≥ 20 µM
HL-60 cells [4]; 20 μM added, after incubation of 39 hours
  living cell numbers compared with the water-added control section: significantly decreased
HL-60 cells [4]; after incubation of 15 hours, concentration of the aqueous solution added (0.5 ml to 4.5 ml suspension)
  concentration at which cells were killed: ≥ 40 µM

## O=C1CC(n2ccnc2)C=C1O (stereo not shown) [imidazolylcyclopentenone, 2-hydroxy-4-(1-imidazolyl)-2-cyclopenten-1-one]
HL-60 cells [1]; final concentration, 48 hours incubation, MTT
  concentration at which the growth of HL-60 cells was completely inhibited: 6.25 µg/mL
